# How the values were obtained:
# [1] = test system: stable CF patients; assay: Phase 2 study: safety, adverse events, discontinuation; type: in vivo, human
# Method: (§1) The following dosage regimens (as nebulizer loaded doses) were evaluated: 120 mg QD (daily); 240 mg QD (daily); and 240 mg BID (twice daily).
# (§2) Patients were assessed on Day 1, 7, 14, and 28, and then up to 28 days after completion of study drug, namely, Days 42 and 56. The end of the study was defined as the last visit of the last patient.
# Adverse events and drug intolerability from Day 1 through the end of study were evaluated.
# [2] = test system: stable CF patients; assay: Phase 2 study: CFQ-R questionnaire; type: in vivo, human
# Method: as §1, §2
# Efficacy was evaluated by microbiologic assessment of sputum samples, time to need for anti-pseudomonal antimicrobials, the Cystic Fibrosis Questionaire-Revised (CFQ-R), and pulmonary function tests. […] Pair-wise comparisons between all the treatment arms were conducted as secondary analyses.
# Patients completed the CFQ-R questionnaire with domains that included: respiratory, body image, digestion, eating, emotion, health perception, physical, role/school, social, treatment burden, vitality, and weight.
# [3] = EE population, Combined 240 mg QD and BID
compound,measurement,setting,value
"C[C@H]1COc2c(N3CCN(C)CC3)c(F)cc3c(=O)c(C(=O)O)cn1c23 [Levofloxacin, levofloxacin]","Discontinuation from study, primary reason adverse event, patients (%)",[1]; 120 mg QD,1 (2.6%)
same,"Study drug discontinuation, adverse event, patients (%)",[1]; 120 mg QD,3 (7.9%)
same,"Study drug discontinuation, patients (%)",[1]; 120 mg QD,3 (7.9%)
same,"Discontinuation from study, primary reason adverse event, patients (%)",[1]; 240 mg BID,2 (5.1%)
same,"Study drug discontinuation, adverse event, patients (%)",[1]; 240 mg BID,2 (5.1%)
same,"Study drug discontinuation, patients (%)",[1]; 240 mg BID,2 (5.1%)
same,"Discontinuation from study, primary reason adverse event, patients (%)",[1]; 240 mg QD,1 (2.7%)
same,"Study drug discontinuation, adverse event, patients (%)",[1]; 240 mg QD,1 (2.7%)
same,"Study drug discontinuation, patients (%)",[1]; 240 mg QD,1 (2.7%)
same,Significant adverse events,[1]; Day 1 through the end of study,No significant adverse events were reported
same,"Respiratory domain of CFQ-R, Change from Baseline to Day 14, Mean","[2]; EE population, 120 mg QD",4.3
same,"Respiratory domain of CFQ-R, Change from Baseline to Day 14, Median","[2]; EE population, 120 mg QD",5.5
same,"Respiratory domain of CFQ-R, Change from Baseline to Day 28, Mean","[2]; EE population, 120 mg QD",1.6
same,"Respiratory domain of CFQ-R, Change from Baseline to Day 28, Median","[2]; EE population, 120 mg QD",0.0
same,"Respiratory domain of CFQ-R, Day 1, Mean","[2]; EE population, 120 mg QD",63.5
same,"Respiratory domain of CFQ-R, Day 1, Median","[2]; EE population, 120 mg QD",66.7
same,"Respiratory domain of CFQ-R, Day 14, Mean","[2]; EE population, 120 mg QD",67.8
same,"Respiratory domain of CFQ-R, Day 14, Median","[2]; EE population, 120 mg QD",66.7
same,"Respiratory domain of CFQ-R, Day 28, Mean","[2]; EE population, 120 mg QD",65.1
same,"Respiratory domain of CFQ-R, Day 28, Median","[2]; EE population, 120 mg QD",66.7
same,"Respiratory domain of CFQ-R, Change from Baseline to Day 14, Mean","[2]; EE population, 240 mg BID",8.5
same,"Respiratory domain of CFQ-R, Change from Baseline to Day 14, Median","[2]; EE population, 240 mg BID",5.6
same,"Respiratory domain of CFQ-R, Change from Baseline to Day 28, Mean","[2]; EE population, 240 mg BID",5.2
same,"Respiratory domain of CFQ-R, Change from Baseline to Day 28, Median","[2]; EE population, 240 mg BID",5.5
same,"Respiratory domain of CFQ-R, Day 1, Mean","[2]; EE population, 240 mg BID",60.3
same,"Respiratory domain of CFQ-R, Day 1, Median","[2]; EE population, 240 mg BID",61.1
same,"Respiratory domain of CFQ-R, Day 14, Mean","[2]; EE population, 240 mg BID",68.8
same,"Respiratory domain of CFQ-R, Day 14, Median","[2]; EE population, 240 mg BID",72.2
same,"Respiratory domain of CFQ-R, Day 28, Mean","[2]; EE population, 240 mg BID",66.0
same,"Respiratory domain of CFQ-R, Day 28, Median","[2]; EE population, 240 mg BID",72.2
same,"Respiratory domain of CFQ-R, Change from Baseline to Day 14, Mean","[2]; EE population, 240 mg QD",2.1
same,"Respiratory domain of CFQ-R, Change from Baseline to Day 14, Median","[2]; EE population, 240 mg QD",0.0
same,"Respiratory domain of CFQ-R, Change from Baseline to Day 28, Mean","[2]; EE population, 240 mg QD",1.0
same,"Respiratory domain of CFQ-R, Change from Baseline to Day 28, Median","[2]; EE population, 240 mg QD",0.0
same,"Respiratory domain of CFQ-R, Day 1, Mean","[2]; EE population, 240 mg QD",60.8
same,"Respiratory domain of CFQ-R, Day 1, Median","[2]; EE population, 240 mg QD",61.1
same,"Respiratory domain of CFQ-R, Day 14, Mean","[2]; EE population, 240 mg QD",63.2
same,"Respiratory domain of CFQ-R, Day 14, Median","[2]; EE population, 240 mg QD",66.7
same,"Respiratory domain of CFQ-R, Day 28, Mean","[2]; EE population, 240 mg QD",61.7
same,"Respiratory domain of CFQ-R, Day 28, Median","[2]; EE population, 240 mg QD",66.7
same,"Respiratory domain of CFQ-R, Change from Baseline to Day 14, Mean",[2]; [3],5.3
same,"Respiratory domain of CFQ-R, Change from Baseline to Day 14, Median",[2]; [3],5.6
same,"Respiratory domain of CFQ-R, Change from Baseline to Day 28, Mean",[2]; [3],3.0
same,"Respiratory domain of CFQ-R, Change from Baseline to Day 28, Median",[2]; [3],0.0
same,"Respiratory domain of CFQ-R, Day 1, Mean",[2]; [3],60.5
same,"Respiratory domain of CFQ-R, Day 1, Median",[2]; [3],61.1
same,"Respiratory domain of CFQ-R, Day 14, Mean",[2]; [3],66.0
same,"Respiratory domain of CFQ-R, Day 14, Median",[2]; [3],66.7
same,"Respiratory domain of CFQ-R, Day 28, Mean",[2]; [3],63.8
same,"Respiratory domain of CFQ-R, Day 28, Median",[2]; [3],66.7
same,"CFQ-R respiratory, mean change from baseline","[2]; EE, 120 mg QD, Baseline to Day 28",1.0 units
same,"Respiratory domain of CFQ-R, Change from Baseline to Day 14, Mean","[2]; MITT population, 120 mg QD",4.5
same,"Respiratory domain of CFQ-R, Change from Baseline to Day 14, Median","[2]; MITT population, 120 mg QD",5.5
same,"Respiratory domain of CFQ-R, Change from Baseline to Day 28, Mean","[2]; MITT population, 120 mg QD",2.0
same,"Respiratory domain of CFQ-R, Change from Baseline to Day 28, Median","[2]; MITT population, 120 mg QD",0.0
same,"Respiratory domain of CFQ-R, Day 1, Mean","[2]; MITT population, 120 mg QD",62.3
same,"Respiratory domain of CFQ-R, Day 1, Median","[2]; MITT population, 120 mg QD",61.1
same,"Respiratory domain of CFQ-R, Day 14, Mean","[2]; MITT population, 120 mg QD",67.1
same,"Respiratory domain of CFQ-R, Day 14, Median","[2]; MITT population, 120 mg QD",66.7

# From patent US10792289B2 (Horizon Orphan LLC, priority 2009, dated 2020)
